The target of data set [1] is T1, AMPA receptor GluA2/3 (Homo sapiens, UniProt P42262+P42263).
T1 construct: expressed in transfected cells; host or cells: Xenopus laevis oocytes
Briefly: Direct AMPA receptor current recording (TEVC) in Xenopus oocytes, GluA2/3. Format: cell-based. The protocol: (§1) FIG. 1. AMPA (GluA2/3, GluA1/2, or GluA3) receptors were expressed in Xenopus oocytes, and perfused with L-glutamate (100 μM) and the indicated compound, unless stated otherwise. Currents were recorded using TEVC. (A) Representative current traces of inhibitory dose-response curves for perampanel on GluA1/2 and GluA2/3 receptors. (B) Dose-response curve showing inhibition of GluA1/2 (N=10) and GluA2/3 (N=6) by perampanel, with respective IC50 values shown in bar graph inset. (C) Effect of varying perampanel concentrations on glutamate EC50 against GluA1/2. Points were normalised to maximal response and represent the mean and SEM of 6 (glutamate only) and 5 (with 2.5 μM and 5 μM perampanel). (D) Quantitative representation of mean currents recorded in wildtype and mutant GluA3 normalised to maximal responses in the presence of perampanel (N=5 for wildtype and N=6 for mutant) and decanoic acid, DA (N=4 for both wildtype and mutant).
(§2) FIG. 2. AMPA (GluA2/3, GluA 1/2, or GluA3) receptors were expressed in Xenopus oocytes, and perfused with L-glutamate (100 μM) and the indicated compound, unless stated otherwise. Currents were recorded using TEVC. (A) Representative current traces of inhibitory dose-response curves for decanoic acid (DA) on GluA2/3 receptors at 1 μM or 4 μM perampanel. Dose-response inhibition curves for decanoic acid at 1μM or 4 μM perampanel on (B) GluA2/3 and (C) GluA1/2 receptors. Points were normalised to maximal response to L-glutamate and solvent, 1 μM perampanel or 4 μM perampanel and represent means and SEM of 8 to 13 readings. Inserts show respective ICs50 values in the presence of perampanel. (D) Representative current traces of inhibitory dose-response curves for perampanel on GluA2/3 receptors at 50 μM to 100 μM decanoic acid. (E), (F) Dose-response inhibition curves for perampanel at 50 μM and 100 μM DA on GluA2/3 (E) and GluA1/2 (F) receptors. Points were normalised to maximal response to L-glutamate with solvent, 50 μM and 100 μM DA and represent means and SEM of 8 to 13 readings. Inserts show respective perampanel IC50 values in the presence of DA. Scale bars correspond to 150 nA in GluA1/2 and 30 nA in GluA2/3 (A), 50 nA (E) and 200 nA (H). Scale bars correspond to 60 nA for +1 μM perampanel and 75 nA for +4 μM perampanel (K) and 200 nA (L).
(§3) As previously described (Chang et al. 2016. Brain 139: 431-43), AMPA receptor subunits (GluA2/3, GluA1/2, and GluA3) were expressed in Xenopus oocytes and agonist elicited inward currents were used to measure inhibition by decanoic acid (Sigma Ltd) and perampanel (Apexmol Technology Co. Ltd).

In data set [2] the test system is GYKI resistant subunit GluA3 mutant. Briefly: Direct AMPA receptor current recording in Xenopus oocytes, GYKI resistant GluA3 mutant. Format: cell-based. Here is the method: as §1, §3
(§4) To confirm this, we expressed a GYKI resistant subunit GluA3 mutant (11) and assessed it for sensitivity to perampanel and decanoic acid (FIG. 1C).

Data set [3] addresses T2, wild type AMPA receptor (GluA3) (Homo sapiens, UniProt P42263).
T2 construct: expressed in transfected cells; host or cells: Xenopus oocytes
Briefly: Direct AMPA receptor current recording in Xenopus oocytes, wild type GluA3. Format: cell-based. The protocol:
as §1, §3, §4

Data set [4] deals with PTZ-induced epileptiform activity in rat entorhinal cortex-hippocampal slices. Briefly: Rat hippocampal PTZ seizure-like activity analysis. As to conditions: for seizure activity: modelled data; for pIC50: Rattus norvegicus, read-out: decanoic acid IC50 for epileptiform activity. Format: cell-based. Here is the method: FIG. 3. (A) Epileptiform (paroxysmal) activity was induced in rat entorhinal cortex-hippocampal slices by application of PTZ (2 mM) and [K+] (to 6 mM), and recorded over time at fixed perampanel and increasing decanoic acid (DA) concentration. (B) Epileptiform activity was normalised to activity in absence or presence of each concentration (100 nM and 500 nM) and shown at variable DA concentrations. […] Data is derived from at least three biological repeats.
Seizure-like activity was induced, as previously described (Chang et al. 2016. Brain 139: 431-43), in rat entorhinal cortex-hippocamal slices by application of PTZ (2 mM) to the perfusate and [K+] was increased (to 6 mM). Perampanel (100 or 500 nM) or DMSO was applied to the perfusate, and then decanoic acid (Sigma Ltd) was applied at increasing concentrations at 10 minutes intervals. The change in the frequency of the discharges was measured at minute intervals, averaged every 5 minutes, and normalised to baseline. Data were analyzed using Origin (OriginLab Corporation, MA USA) and SPSS (IBM, UK) with IC50 values calculated from fitting data values with a Hill plot. Statistical analysis was performed using a one-way ANOVA with two-way Dunnett's post hoc test.

For data set [5], the target named is T3, AMPA receptor GluA1/2 (Homo sapiens, UniProt P42261+P42262).
T3 construct: expressed in transfected cells; host or cells: Xenopus laevis oocytes
Briefly: Direct AMPA receptor current recording (TEVC) in Xenopus oocytes, GluA1/2. It counts as cell-based. The protocol: as §1, §2, §3

The conditions of data set [6]: patients on the MCT ketogenic diet; cited from earlier work.
A short description of data set [7]: Decanoic acid levels in patients on the MCT ketogenic diet. It counts as in vivo. As to conditions: extrapolating the rodent ratio to human brain.
The conditions of data set [8]: rodent models; cited from earlier work.
The mark [9] stands for this setting: IC50, inhibition of AMPA receptor currents, perampanel alone, currents elicited by glutamate, Xenopus oocytes (FIG. 1B).
Setting [10] is: read-out: glutamate evoked maximal response reduced to.

pIC50: −log10 of the molar value. Like-named read-outs stand apart in the source and are kept apart here.

T3 sequence (P42261 19-906): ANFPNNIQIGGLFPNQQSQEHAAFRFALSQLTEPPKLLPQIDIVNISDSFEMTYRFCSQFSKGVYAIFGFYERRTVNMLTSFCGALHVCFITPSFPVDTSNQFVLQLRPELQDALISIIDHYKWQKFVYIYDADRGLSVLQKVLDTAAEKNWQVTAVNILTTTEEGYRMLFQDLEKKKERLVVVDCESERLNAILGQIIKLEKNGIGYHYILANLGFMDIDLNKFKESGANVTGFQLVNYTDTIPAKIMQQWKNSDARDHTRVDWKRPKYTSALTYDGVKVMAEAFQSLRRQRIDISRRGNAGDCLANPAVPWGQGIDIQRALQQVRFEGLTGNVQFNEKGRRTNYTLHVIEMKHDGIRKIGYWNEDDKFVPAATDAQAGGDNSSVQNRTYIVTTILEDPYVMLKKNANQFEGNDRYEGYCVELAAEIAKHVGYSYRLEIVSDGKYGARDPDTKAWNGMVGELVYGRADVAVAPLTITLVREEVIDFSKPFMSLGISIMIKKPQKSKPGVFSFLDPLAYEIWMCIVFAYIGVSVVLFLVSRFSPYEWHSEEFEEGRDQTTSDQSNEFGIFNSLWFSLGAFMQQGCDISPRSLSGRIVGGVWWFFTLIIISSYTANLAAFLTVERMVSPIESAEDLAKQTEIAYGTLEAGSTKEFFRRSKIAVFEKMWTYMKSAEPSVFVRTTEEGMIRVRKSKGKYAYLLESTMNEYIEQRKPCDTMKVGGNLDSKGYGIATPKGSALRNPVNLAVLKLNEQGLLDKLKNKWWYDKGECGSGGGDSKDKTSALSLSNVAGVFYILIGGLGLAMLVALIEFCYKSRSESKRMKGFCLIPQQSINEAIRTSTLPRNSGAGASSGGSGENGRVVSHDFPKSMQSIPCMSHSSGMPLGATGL
T3 sequence (P42262 22-883 limits assumed): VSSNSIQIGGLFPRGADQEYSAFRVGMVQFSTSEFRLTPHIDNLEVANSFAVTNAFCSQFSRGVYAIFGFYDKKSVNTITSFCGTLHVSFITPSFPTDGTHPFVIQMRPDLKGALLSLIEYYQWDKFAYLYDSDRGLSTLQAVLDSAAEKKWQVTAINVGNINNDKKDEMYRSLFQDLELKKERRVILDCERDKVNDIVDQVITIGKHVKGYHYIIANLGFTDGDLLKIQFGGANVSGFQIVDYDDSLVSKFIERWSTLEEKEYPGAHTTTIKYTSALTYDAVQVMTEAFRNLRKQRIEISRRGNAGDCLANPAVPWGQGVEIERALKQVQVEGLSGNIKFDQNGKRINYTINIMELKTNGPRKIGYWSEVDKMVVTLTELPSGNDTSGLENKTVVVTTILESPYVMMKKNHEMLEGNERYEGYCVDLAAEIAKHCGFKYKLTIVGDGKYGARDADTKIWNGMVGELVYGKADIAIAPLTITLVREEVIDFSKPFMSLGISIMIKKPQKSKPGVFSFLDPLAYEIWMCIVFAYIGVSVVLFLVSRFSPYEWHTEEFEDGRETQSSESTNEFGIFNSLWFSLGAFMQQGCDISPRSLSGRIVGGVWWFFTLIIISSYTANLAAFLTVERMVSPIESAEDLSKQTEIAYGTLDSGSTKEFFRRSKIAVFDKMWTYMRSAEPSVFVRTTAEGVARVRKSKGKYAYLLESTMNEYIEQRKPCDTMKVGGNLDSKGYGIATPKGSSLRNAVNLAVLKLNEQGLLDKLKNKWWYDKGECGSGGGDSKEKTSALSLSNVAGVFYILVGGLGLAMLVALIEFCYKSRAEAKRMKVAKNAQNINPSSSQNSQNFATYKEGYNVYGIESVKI
T1 sequence (P42262 22-883 limits assumed): as above
T1 sequence (P42263 29-894): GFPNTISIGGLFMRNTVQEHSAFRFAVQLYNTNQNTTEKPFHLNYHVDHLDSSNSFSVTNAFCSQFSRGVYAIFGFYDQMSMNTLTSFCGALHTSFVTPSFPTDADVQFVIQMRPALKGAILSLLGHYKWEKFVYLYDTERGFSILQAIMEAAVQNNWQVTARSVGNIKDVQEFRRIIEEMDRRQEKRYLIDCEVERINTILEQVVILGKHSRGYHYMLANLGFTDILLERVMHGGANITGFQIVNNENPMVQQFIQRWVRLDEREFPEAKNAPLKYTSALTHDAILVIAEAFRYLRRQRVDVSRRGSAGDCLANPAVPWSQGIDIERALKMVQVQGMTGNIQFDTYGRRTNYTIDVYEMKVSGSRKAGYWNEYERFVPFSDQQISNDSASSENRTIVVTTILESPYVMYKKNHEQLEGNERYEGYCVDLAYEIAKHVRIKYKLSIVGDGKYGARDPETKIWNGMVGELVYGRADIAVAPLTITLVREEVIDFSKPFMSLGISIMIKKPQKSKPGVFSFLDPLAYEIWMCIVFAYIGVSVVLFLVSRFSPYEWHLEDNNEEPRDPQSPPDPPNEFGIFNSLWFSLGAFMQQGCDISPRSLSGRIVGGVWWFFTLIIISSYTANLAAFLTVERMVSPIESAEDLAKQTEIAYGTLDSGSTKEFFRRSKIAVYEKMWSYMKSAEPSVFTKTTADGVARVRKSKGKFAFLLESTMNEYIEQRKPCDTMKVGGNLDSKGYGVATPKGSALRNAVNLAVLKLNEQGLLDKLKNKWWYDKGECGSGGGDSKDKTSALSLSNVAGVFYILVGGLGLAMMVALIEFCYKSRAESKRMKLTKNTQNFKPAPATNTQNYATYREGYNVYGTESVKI
T2 sequence (P42263 29-894, species assumed): as the sequence (P42263 29-894) above

As for `N#Cc1ccccc1-c1cc(-c2ccccn2)cn(-c2ccccc2)c1=O` [perampanel, 3-(2-Cyanophenyl)-5-(2-pyridyl)-1-phenyl-1,2-dihydropyridin-2-one], the pIC50 was 5.82 in data set [1] (setting [9]); 5.29 in data set [1] (perampanel IC50 in GluA2/3, in the absence of DA (FIG. 2E)); 5.77 in data set [1] (perampanel IC50 in GluA2/3, in the presence of DA at 50 mM); 5.80 in data set [1] (perampanel IC50 in GluA2/3, in the presence of DA at 100 Mm); 5.95 in data set [5] (setting [9]); 5.68 in data set [5] (perampanel IC50 in GluA1/2). The pIC50 is 5.21 in data set [5] (perampanel IC50 in GluA1/2, in the absence of DA (FIG. 2F)) and 5.66 in data set [5] (perampanel IC50 in GluA1/2, in the presence of DA). The “reduction in the IC50 value for perampanel” value is given as around 3 fold in data set [1] (in combination with decanoic acid, GluA2/3) and around 3 fold in data set [5] (in combination with decanoic acid, GluA1/2). In data set [1] (with 100 μM decanoic acid, subunit combination not specified), the “increase in the inhibition of the AMPA receptor by perampanel” value stood at 3 fold. Also, the results for the “reduction of glutamate-induced currents” value in data set [2] (perampanel 20 μM) and in data set [3] (perampanel 20 μM) were 54.3% and 94.7%, respectively. The seizure activity in data set [4] (perampanel 100 nM, in the absence of decanoic acid) is listed as 95.6%. Besides, in data set [5] (increasing glutamate concentrations not reversing inhibition (FIG. 1C)), the “manner of inhibition of AMPA receptor currents” value is “non-competitive”. Also, the Emax at 2.5 µM in data set [5] (setting [10]) stood at 75.2%. For the same molecule, the Emax at 5 µM in data set [5] (setting [10]) is 16.9%.

In the case of `CCCCCCCCCC(=O)O` [decanoic acid], in data set [6], the “average concentration of decanoic acid in peripheral blood” value is 157 µM. For the same molecule, the pIC50 was 3.28 in data set [1] (in the absence of perampanel, read-out: decanoic acid IC50 for GluA2/3); 4.00 in data set [1] (in the presence of 1 μM perampanel, read-out: decanoic acid IC50 for GluA2/3); 4.40 in data set [1] (in the presence of 4 μM perampanel, read-out: decanoic acid IC50 for GluA2/3); 3.71 in data set [4] (at 100 nM perampanel); 3.91 in data set [4] (at 500 nM perampanel); 3.45 in data set [4] (without perampanel). The pIC50 in data set [5] (in the absence of perampanel, read-out: decanoic acid IC50 for GluA1/2) was 3.04; in data set [5] (in the presence of 1 μM perampanel, read-out: decanoic acid IC50 for GluA1/2), 3.68; in data set [5] (in the presence of 4 μM perampanel, read-out: decanoic acid IC50 for GluA1/2) it was 4.05. Also, the “reduction of glutamate-induced currents” value in data set [2] (decanoic acid 1 mM) is 72.8%; in data set [3] (decanoic acid 1 mM) it was 74.5%. Moreover, the seizure activity in data set [4] (decanoic acid 10 μM combined with perampanel 100 nM) came out at 76.8%. Besides, in data set [4] (decanoic acid 10 μM with perampanel 500 nM), the “seizure activity (baseline inhibition reduced to)” value came out at 69.6%. The “concentration giving block of epileptiform activity” value in data set [4] (decanoic acid alone) came to 1000 µM. In data set [4] (decanoic acid alone, increasing concentrations), the “concentration at which epileptiform activity was reduced” value came out at 300 µM. In addition, in data set [4] (decanoic acid combined with perampanel 100 nM), the “concentration giving block in seizure activity” value came out at 600 µM. Further, the “average concentration of decanoic acid in the brain” value in data set [7] was “around 110 μM”. Moreover, the “ratio of decanoic acid in brain to blood plasma” value in data set [8] was “around 0.7”.

Source of the values: patent publication US20240350444A1, “COMBINATION COMPRISING DECANOIC ACID FOR THE TREATMENT OF EPILEPSY” (priority 2017, published 2024).
